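Method: 48-hour compound exposure of cells in 96-well plates, five concentrations, linear interpolation of endpoints. TGI: total growth inhibition.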
Legend:
Assay in all cases: NCI tumour cell line growth inhibition, 48 h
LOX IMVI melanoma = tested on: LOX IMVI melanoma
HS 578T breast = tested on: HS 578T breast
DU-145 prostate = tested on: DU-145 prostate
KM12 colon = tested on: KM12 colon
NCI-H460 lung = tested on: NCI-H460 lung
A549 NSCLC = tested on: A549 NSCLC
SN12C renal = tested on: SN12C renal
K-562 leukemia = tested on: K-562 leukemia
NCI/ADR-RES ovarian = tested on: NCI/ADR-RES ovarian
OVCAR-5 ovarian = tested on: OVCAR-5 ovarian
NCI-H23 lung = tested on: NCI-H23 lung
NCI-H226 lung = tested on: NCI-H226 lung
SK-MEL-2 melanoma = tested on: SK-MEL-2 melanoma
MCF7 breast = tested on: MCF7 breast
A498 renal = tested on: A498 renal
MDA-N = tested on: MDA-N
RPMI-8226 leukemia = tested on: RPMI-8226 leukemia
NCI-H522 lung = tested on: NCI-H522 lung

SMILES	TGI (LOX IMVI melanoma)	TGI (HS 578T breast)	TGI (DU-145 prostate)	TGI (KM12 colon)	TGI (NCI-H460 lung)	TGI (A549 NSCLC)	TGI (SN12C renal)	TGI (K-562 leukemia)	TGI (NCI/ADR-RES ovarian)	TGI (OVCAR-5 ovarian)	TGI (NCI-H23 lung)	TGI (NCI-H226 lung)	TGI (SK-MEL-2 melanoma)	TGI (MCF7 breast)	TGI (A498 renal)	TGI (MDA-N)	TGI (RPMI-8226 leukemia)	TGI (NCI-H522 lung)
Cc1ccnc2nc3[nH]c4ccccc4c3cc12	> 100 µM	> 100 µM	> 100 µM	> 100 µM	> 100 µM	> 100 µM	> 100 µM	> 100 µM	> 100 µM	> 100 µM	> 100 µM	> 100 µM	> 100 µM	> 100 µM	> 100 µM	> 100 µM	> 100 µM	> 100 µM
O=c1[nH]c2ccsc2c(=O)n1COCc1ccccc1	> 100 µM	> 100 µM	> 100 µM	> 100 µM	> 100 µM	> 100 µM	> 100 µM	> 100 µM	> 100 µM	> 100 µM	> 100 µM	> 100 µM	> 100 µM	> 100 µM	> 100 µM	> 100 µM	> 100 µM	> 100 µM
COc1ccc(-n2cnc3c(NC(C)(C)C(=O)O)ncnc32)cc1	> 100 µM	> 100 µM	> 100 µM	> 100 µM	> 100 µM	> 100 µM	> 100 µM	> 100 µM	> 100 µM	> 100 µM	> 100 µM	> 100 µM	> 100 µM	> 100 µM	> 100 µM	> 100 µM	> 100 µM	
CCn1c(SCC(=O)NNC(=S)Nc2ccc(F)cc2)nc2ccccc2c1=O	> 100 µM	> 100 µM	> 100 µM	> 100 µM		> 100 µM	> 100 µM	> 100 µM	> 100 µM	> 100 µM	> 100 µM	> 100 µM	> 100 µM	> 100 µM	> 100 µM	> 100 µM	> 100 µM	> 100 µM
CCn1c(=O)c2c3ccc(O)cc3oc2c2ccc(O)cc21		70.4 µM	> 100 µM	> 100 µM	> 100 µM	> 100 µM	> 100 µM	> 100 µM	> 100 µM		> 100 µM	> 100 µM		> 100 µM	84.5 µM	> 100 µM		> 100 µM
COc1ccc(CCN(C)C(=O)CC(C#N)(c2ccccc2)c2ccc(OC)c(OC)c2)cc1OC (centres undefined)	> 100 µM	> 100 µM	> 100 µM	> 100 µM	> 100 µM	> 100 µM	> 100 µM	> 100 µM	> 100 µM	> 100 µM	> 100 µM	> 100 µM	> 100 µM	> 100 µM	> 100 µM	> 100 µM	> 100 µM	> 100 µM
N#CC(C#N)=C1CCCCc2ccc([N+](=O)[O-])cc21	> 100 µM	> 100 µM	> 100 µM	> 100 µM	> 100 µM	> 100 µM	> 100 µM	> 100 µM	> 100 µM	> 100 µM	> 100 µM	> 100 µM	> 100 µM	> 100 µM	> 100 µM	> 100 µM	87.5 µM	39.9 µM
C=CC(c1ccccc1)C1(O)c2cccc(O)c2C(=O)c2c(O)cccc21 (centres undefined)	29.9 µM	34.8 µM	28.8 µM	40.9 µM	36.7 µM	32.9 µM		37.7 µM	31.2 µM	54.2 µM	30.8 µM	39.8 µM	26.4 µM	37.8 µM	34.6 µM	20.7 µM	54.8 µM	30.1 µM
CN1CCC/C1=C1\C(=O)c2cccn2C1=O	> 100 µM	> 100 µM	> 100 µM	> 100 µM	> 100 µM	> 100 µM	> 100 µM	> 100 µM	> 100 µM	> 100 µM	> 100 µM	> 100 µM	> 100 µM	> 100 µM	> 100 µM	> 100 µM	> 100 µM	> 100 µM
CCOC(=O)c1c(NC(=O)c2ccc(OC)cc2)sc2c1CCCC2		> 100 µM	> 100 µM	> 100 µM	> 100 µM	> 100 µM	> 100 µM	> 100 µM	> 100 µM	> 100 µM	> 100 µM	> 100 µM	> 100 µM	> 100 µM	> 100 µM	> 100 µM	> 100 µM	
C/C(=C/CNc1ncnc2c1ncn2CCC#N)CO	> 100 µM	> 100 µM	> 100 µM	> 100 µM	> 100 µM	> 100 µM	> 100 µM	> 100 µM	> 100 µM	> 100 µM	> 100 µM	> 100 µM		> 100 µM	> 100 µM	> 100 µM	> 100 µM	> 100 µM
CCOC(=O)Oc1cc2c(ccn2C)c2c1c1ccccc1n2C(=O)OCC	> 100 µM	> 100 µM	> 100 µM	> 100 µM	> 100 µM	> 100 µM	> 100 µM	> 100 µM	> 100 µM	> 100 µM	> 100 µM	> 100 µM	> 100 µM	> 100 µM	> 100 µM	> 100 µM	> 100 µM	> 100 µM
C[C@@H]1OC2(O)[C@@H]3CCCN3C(=O)N(Cc3ccccc3)N2C1=O (some centres undefined)	> 100 µM	> 100 µM	> 100 µM	> 100 µM	> 100 µM	> 100 µM	> 100 µM		> 100 µM	> 100 µM	> 100 µM	> 100 µM	> 100 µM	> 100 µM	> 100 µM	> 100 µM		
CCCCCNC1=CC(=O)c2ccccc2C1=O	> 57 µM	> 81.3 µM	> 100 µM	> 100 µM	> 100 µM	> 100 µM	> 100 µM	> 100 µM	> 100 µM	> 100 µM	58.3 µM	> 82.5 µM	53.6 µM	> 100 µM	> 76.7 µM	> 100 µM	> 100 µM	44.3 µM

Source: PubChem BioAssay (NCI)
